Results from ChEMBL document CHEMBL1140656, “Design, synthesis, and evaluation of 3,4-disubstituted pyrazole analogues as anti-tumor CDK inhibitors” (Bioorg Med Chem Lett, 2007).

Tests used:
[1] = biological target: Vascular endothelial growth factor receptor 2 (Homo sapiens, UniProt P35968); experiment: Inhibition of VEGFR2
[2] = system: A-375; experiment: Antiproliferative activity against human A375 cells; format: functional, cell-based
[3] = Inhibition of CDK1/cyclin B; design: species or system Homo sapiens
[4] = system: HCT-116; experiment: Antiproliferative activity against human HCT116 cells; format: functional, cell-based
[5] = system: HeLa; experiment: Antiproliferative activity against human HeLa cells; format: functional, cell-based
[6] = biological target: T1, Aurora kinase A (Homo sapiens, UniProt O14965); experiment: Inhibition of aurora-A
T1 sequence (O14965 whole entry): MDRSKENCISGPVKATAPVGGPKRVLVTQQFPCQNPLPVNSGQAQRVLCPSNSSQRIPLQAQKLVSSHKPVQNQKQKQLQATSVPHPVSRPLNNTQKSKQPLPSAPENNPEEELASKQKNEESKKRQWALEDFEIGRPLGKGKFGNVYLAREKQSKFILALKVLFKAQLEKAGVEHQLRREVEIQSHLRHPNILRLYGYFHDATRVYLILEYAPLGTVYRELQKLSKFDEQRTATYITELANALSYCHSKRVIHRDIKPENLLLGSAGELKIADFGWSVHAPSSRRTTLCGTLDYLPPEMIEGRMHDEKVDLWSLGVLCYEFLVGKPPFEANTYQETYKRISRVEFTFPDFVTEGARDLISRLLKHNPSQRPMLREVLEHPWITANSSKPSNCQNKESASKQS

[7] = biological target: Receptor tyrosine-protein kinase erbB-2 (Homo sapiens, UniProt P04626); experiment: Inhibition of HER2
Sequence of Receptor tyrosine-protein kinase erbB-2 (P04626 whole entry): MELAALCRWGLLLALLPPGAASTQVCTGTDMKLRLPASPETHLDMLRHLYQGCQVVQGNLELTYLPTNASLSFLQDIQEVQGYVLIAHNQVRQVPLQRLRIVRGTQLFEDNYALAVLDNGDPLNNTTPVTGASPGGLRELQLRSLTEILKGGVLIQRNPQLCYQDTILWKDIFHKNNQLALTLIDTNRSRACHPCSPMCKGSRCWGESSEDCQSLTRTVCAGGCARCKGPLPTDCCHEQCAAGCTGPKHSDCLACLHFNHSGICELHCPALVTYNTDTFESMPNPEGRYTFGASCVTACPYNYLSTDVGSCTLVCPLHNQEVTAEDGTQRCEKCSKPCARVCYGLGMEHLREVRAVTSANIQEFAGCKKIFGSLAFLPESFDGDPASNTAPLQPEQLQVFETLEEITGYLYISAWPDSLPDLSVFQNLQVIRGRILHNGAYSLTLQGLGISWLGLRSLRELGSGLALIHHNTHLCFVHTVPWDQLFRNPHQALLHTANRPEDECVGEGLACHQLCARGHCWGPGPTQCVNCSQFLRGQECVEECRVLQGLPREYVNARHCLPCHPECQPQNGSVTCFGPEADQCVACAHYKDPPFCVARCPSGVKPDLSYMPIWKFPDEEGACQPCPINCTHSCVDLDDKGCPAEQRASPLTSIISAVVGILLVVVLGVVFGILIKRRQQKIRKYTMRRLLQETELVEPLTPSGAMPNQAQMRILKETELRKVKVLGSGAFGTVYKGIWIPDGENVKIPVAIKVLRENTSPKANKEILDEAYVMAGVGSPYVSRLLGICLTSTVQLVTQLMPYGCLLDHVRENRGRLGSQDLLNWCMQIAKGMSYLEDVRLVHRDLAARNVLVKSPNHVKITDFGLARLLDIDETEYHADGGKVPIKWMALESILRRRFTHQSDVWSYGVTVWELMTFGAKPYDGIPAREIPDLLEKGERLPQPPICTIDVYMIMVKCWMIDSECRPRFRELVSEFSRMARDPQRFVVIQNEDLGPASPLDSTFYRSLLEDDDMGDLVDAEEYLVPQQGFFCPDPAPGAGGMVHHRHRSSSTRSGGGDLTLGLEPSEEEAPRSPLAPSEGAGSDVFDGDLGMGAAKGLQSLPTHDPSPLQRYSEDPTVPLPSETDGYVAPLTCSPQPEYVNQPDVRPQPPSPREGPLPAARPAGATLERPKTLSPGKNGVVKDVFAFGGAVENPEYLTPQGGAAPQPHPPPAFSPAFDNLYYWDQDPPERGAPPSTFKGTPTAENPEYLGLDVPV

Sequence of Vascular endothelial growth factor receptor 2 (P35968 whole entry): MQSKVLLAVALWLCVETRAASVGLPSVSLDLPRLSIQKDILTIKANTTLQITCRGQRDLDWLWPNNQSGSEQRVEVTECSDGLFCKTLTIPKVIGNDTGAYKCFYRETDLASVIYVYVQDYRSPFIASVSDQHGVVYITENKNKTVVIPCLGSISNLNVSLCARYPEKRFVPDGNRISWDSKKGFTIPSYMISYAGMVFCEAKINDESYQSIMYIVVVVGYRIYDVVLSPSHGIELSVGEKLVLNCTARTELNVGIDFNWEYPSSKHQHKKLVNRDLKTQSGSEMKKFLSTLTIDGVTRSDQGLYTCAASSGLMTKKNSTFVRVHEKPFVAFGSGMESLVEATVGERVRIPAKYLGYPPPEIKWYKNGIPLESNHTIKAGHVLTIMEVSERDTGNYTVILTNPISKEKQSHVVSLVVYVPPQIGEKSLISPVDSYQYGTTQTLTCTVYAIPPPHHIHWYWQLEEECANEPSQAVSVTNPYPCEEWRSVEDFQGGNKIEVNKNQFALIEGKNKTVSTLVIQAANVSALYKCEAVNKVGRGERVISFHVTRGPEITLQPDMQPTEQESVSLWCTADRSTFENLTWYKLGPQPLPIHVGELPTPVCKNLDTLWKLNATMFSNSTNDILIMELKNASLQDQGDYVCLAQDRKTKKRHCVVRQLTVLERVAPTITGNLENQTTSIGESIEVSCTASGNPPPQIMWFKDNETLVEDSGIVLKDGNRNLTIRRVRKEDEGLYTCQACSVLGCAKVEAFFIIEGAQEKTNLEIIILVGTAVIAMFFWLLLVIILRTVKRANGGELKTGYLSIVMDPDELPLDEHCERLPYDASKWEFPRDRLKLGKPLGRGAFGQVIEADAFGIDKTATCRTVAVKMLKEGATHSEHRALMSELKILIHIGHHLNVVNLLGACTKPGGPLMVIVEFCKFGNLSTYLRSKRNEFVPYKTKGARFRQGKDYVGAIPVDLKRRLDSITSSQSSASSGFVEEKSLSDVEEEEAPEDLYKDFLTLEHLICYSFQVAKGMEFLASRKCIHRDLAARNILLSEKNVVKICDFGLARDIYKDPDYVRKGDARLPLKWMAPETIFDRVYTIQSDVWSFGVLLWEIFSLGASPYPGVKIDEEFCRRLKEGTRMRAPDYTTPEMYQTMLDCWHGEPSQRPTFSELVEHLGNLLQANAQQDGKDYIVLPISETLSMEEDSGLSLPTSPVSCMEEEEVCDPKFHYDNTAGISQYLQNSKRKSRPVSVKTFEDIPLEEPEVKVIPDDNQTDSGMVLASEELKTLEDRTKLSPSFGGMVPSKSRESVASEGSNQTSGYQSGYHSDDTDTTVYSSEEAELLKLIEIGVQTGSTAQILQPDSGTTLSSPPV

Row | IC50 [1] | IC50 [2] | IC50 [3] | IC50 [4] | IC50 [5] | IC50 [6] | IC50 [7] | SMILES
1 | 970 nM | 2500 nM | 33 nM | 2200 nM | 1800 nM | 510 nM | > 10000 nM | COc1ccc2nc(-c3n[nH]cc3/C=C/c3cccnc3)[nH]c2c1
2 | 650 nM | 910 nM | 47 nM | 750 nM | 890 nM | 400 nM |  | COc1cncc(/C=C/c2c[nH]nc2-c2nc3ccc(OC)cc3[nH]2)c1
3 | 29000 nM | 47000 nM | 480 nM | 24000 nM | > 10000 nM | 120 nM | > 100000 nM | FC(F)(F)c1c[nH]c(-c2n[nH]cc2/C=C/c2cccnc2)n1
4 | 1700 nM |  | > 1000 nM |  |  | 4200 nM | > 100000 nM | COc1ccc2nc(-c3n[nH]cc3/C=C/c3cncc(C#N)c3)[nH]c2c1
5 | 1280 nM | 3100 nM | 890 nM | 3100 nM | 4400 nM | > 100000 nM | > 100000 nM | COC(=O)c1cncc(/C=C/c2c[nH]nc2-c2nc3ccc(OC)cc3[nH]2)c1
6 | 820 nM | 550 nM | 4.6 nM | 190 nM | 620 nM | 590 nM |  | CCNCc1cncc(/C=C/c2c[nH]nc2-c2nc3ccc(OC)cc3[nH]2)c1
7 | 1350 nM | 3600 nM | 110 nM | 2500 nM | 3700 nM | > 100000 nM |  | CCNC(=O)c1cncc(/C=C/c2c[nH]nc2-c2nc3ccc(OC)cc3[nH]2)c1
8 | 10000 nM | 7400 nM | 18 nM | 1700 nM | 3200 nM | > 10000 nM | > 100000 nM | CCNCc1cncc(/C=C/c2c[nH]nc2-c2nc(C(F)(F)F)c[nH]2)c1
9 | 290 nM | 860 nM | 29 nM | 190 nM | 460 nM | > 10000 nM |  | CN1CCN(c2ccc3nc(-c4n[nH]cc4/C=C/c4cccnc4)[nH]c3c2)CC1
10 | > 10000 nM | > 10000 nM | 700 nM | 70700 nM | > 10000 nM | > 10000 nM | > 100000 nM | N#Cc1c[nH]c(-c2n[nH]cc2/C=C/c2cccnc2)n1
11 | 760 nM | 4300 nM | 160 nM | 3200 nM | 2800 nM | 550 nM | > 10000 nM | COc1ccc2nc(-c3n[nH]cc3/C=C/c3cnccc3C)[nH]c2c1
12 | 610 nM | 3000 nM | 150 nM | 2700 nM | 2800 nM | 530 nM | > 100000 nM | COc1ccc2nc(-c3n[nH]cc3/C=C/c3cncc4ccccc34)[nH]c2c1
13 | 3060 nM | 5600 nM | 110 nM | 2900 nM | 3600 nM | 300 nM |  | FC(F)(F)c1c[nH]c(-c2n[nH]cc2/C=C/c2cncc3ccccc23)n1
